For orientation: IC50 means the concentration that gives 50% inhibition. The low end stands for higher potency, the high end for lower potency. Usually EC50 stands for the midpoint of the concentration-response curve.

Molecules are shown by their SMILES. Where two headings read alike, the source gives them in different places. Bounds are passed on as bounds.

The text below walks through data of patent US11168083B2, “Inhibitors of Plasma Kallikrein and uses thereof” (Takeda Pharmaceutical Company Limited, priority 2017, dated 2021).

What all share (assay type): biochemical
One assay concerns the target Elastase. Briefly: Selectivity screen of serine proteases, anti-target panel: Elastase. Here is the method:
(§1) Compounds 11, 33, and 53 were evaluated in a selectivity screen of serine proteases.

A further assay deals with FXa (Homo sapiens (Human), UniProt P00742). Briefly: Selectivity screen of serine proteases, anti-target panel: FXa. How it is done: as §1
Sequence of FXa (P00742 235-488): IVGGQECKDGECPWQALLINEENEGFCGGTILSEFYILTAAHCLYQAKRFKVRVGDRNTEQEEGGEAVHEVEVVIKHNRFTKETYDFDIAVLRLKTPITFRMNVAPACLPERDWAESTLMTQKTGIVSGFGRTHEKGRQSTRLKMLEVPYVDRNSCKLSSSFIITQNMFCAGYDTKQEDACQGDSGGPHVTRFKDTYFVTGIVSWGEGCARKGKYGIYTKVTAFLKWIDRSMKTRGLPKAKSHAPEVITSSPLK
Sequence of FXa (P00742 41-179 partner): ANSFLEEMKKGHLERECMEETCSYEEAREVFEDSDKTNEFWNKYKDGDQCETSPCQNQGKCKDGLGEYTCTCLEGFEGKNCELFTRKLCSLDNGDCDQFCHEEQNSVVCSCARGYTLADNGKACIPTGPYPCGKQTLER
The next assay relates to Trypsin. Briefly: Selectivity screen of serine proteases, anti-target panel: Trypsin. How it is done: as §1
The target of the next assay is Thrombin (Homo sapiens (Human), UniProt P00734). Briefly: Selectivity screen of serine proteases, anti-target panel: Thrombin. How it is done: as §1
Assay [1] deals with human activated kallikrein enzyme (Homo sapiens (Human), UniProt P03952). Briefly: Inhibition of human activated kallikrein enzyme, fluorogenic peptide substrate assay (two formats). The settings on record: read-out: pKal EC50. The gist of the method:
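Fluorogenic Pro-Phe-Arg-AMC substrate (300 uM) in 20 mM Tris pH 7.5, 150 mM NaCl, 1 mM EDTA, 0.1% PEG-400, 0.1% Triton X-100; enzyme and inhibitor preincubated 30 min at room temperature. Format one: 500 pM enzyme, 10 min reaction; format two: 5 pM enzyme, 18 hr reaction. Fluorescence read at 380 nm excitation/460 nm emission.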

Assay [2] deals with selected anti-target proteases. Briefly: Selectivity screen of serine proteases (overall statement). The settings on record: none showed any inhibitory activity of the anti-target proteases. Here is the method:
as §1

The mark [3] stands for this setting: Table 2, column head prints nM, ranges defined in μM.

Sequence of human activated kallikrein enzyme (P03952 391-638): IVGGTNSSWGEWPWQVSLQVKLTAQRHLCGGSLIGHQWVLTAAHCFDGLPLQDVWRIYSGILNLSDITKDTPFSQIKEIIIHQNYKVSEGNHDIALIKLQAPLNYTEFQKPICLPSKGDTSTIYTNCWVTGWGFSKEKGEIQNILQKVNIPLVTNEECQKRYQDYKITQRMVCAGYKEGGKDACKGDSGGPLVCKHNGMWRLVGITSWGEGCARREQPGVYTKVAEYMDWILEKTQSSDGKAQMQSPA
Sequence of human activated kallikrein enzyme (P03952 20-390 partner): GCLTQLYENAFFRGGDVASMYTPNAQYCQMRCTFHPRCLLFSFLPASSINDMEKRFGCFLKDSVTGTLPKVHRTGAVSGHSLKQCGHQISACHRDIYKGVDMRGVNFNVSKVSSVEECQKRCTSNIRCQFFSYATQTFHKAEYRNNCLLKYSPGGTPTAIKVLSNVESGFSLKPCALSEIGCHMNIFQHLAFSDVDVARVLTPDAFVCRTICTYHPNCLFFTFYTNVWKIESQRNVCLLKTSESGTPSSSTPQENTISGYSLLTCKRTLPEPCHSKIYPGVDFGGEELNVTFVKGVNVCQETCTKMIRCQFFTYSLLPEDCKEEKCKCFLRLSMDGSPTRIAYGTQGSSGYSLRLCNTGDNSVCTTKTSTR

`CNC(=O)[C@H](CCCCNC(=N)N)NC(=O)c1csc([C@@H]2C[C@@H](N)CN2C(=O)c2cn3cc(Cl)ccc3n2)n1` [Compound 11, 2-((2S,4R)-4-amino-1-(6-chloroimidazo[1,2-a]pyridine-2-carbonyl)pyrrolidin-2-yl)-N—((S)-6-guanidino-1-(methylamino)-1-oxohexan-2-yl)thiazole-4-carboxamide]: the IC50 was more than 10 µM on Elastase, more than 10 µM against FXa, more than 100 µM in the assay with Trypsin and more than 10 µM against Thrombin. For the same molecule, the figures for the EC50 in assay [1] (setting [3]) and in assay [1] (Table 3) were not above 100 nM and 32 nM, respectively. For the same molecule, the “Selectivity for pKal over selected anti-target proteases” value (from here on “Selectivity for pKal”) in assay [2] is recorded as “selective inhibitors of pKal”.
On to `CNC(=O)[C@H](CCCCNC(=N)N)NC(=O)c1csc([C@@H]2CCCN2C(=O)c2cn3cc(Cl)ccc3n2)n1` [Compound 33, 2-((S)-1-(6-Chloroimidazo[1,2-a]pyridine-2-carbonyl)pyrrolidin-2-yl)-N—((S)-6-guanidino-1-(methylamino)-1-oxohexan-2-yl)thiazole-4-carboxamide], for which the IC50 at Elastase was more than 10 µM; at FXa it was more than 10 µM; in the assay with Trypsin it was more than 100 µM; at Thrombin it was more than 10 µM. The EC50 was 1000 to 5000 nM in assay [1] (setting [3]) and 3240 nM in assay [1] (Table 3). For the same molecule, the “Selectivity for pKal” value in assay [2] is on record as “selective inhibitors of pKal”.
On to `Nc1nccc2cc(CCNC(=O)c3csc([C@@H]4C[C@@H](N)CN4C(=O)c4cn5cc(Cl)ccc5n4)n3)ccc12` [Compound 53, 2-((2S,4R)-4-amino-1-(6-chloroimidazo[1,2-a]pyridine-2-carbonyl)pyrrolidin-2-yl)-N-(2-(1-aminoisoquinolin-6-yl)ethyl)thiazole-4-carboxamide], for which the IC50 was more than 10 µM against Elastase, more than 10 µM at FXa, more than 100 µM in the assay on Trypsin and more than 10 µM against Thrombin. In addition, the EC50 was not above 100 nM in assay [1] (setting [3]) and 15 nM in assay [1] (Table 3). Further, the “Selectivity for pKal” value in assay [2] is given as “selective inhibitors of pKal”.
`CNC(=O)[C@H](CCCCNC(=N)N)NC(=O)c1csc([C@@H]2C[C@@H](N)CN2C(=O)c2cc3cc(C(F)(F)F)ccc3s2)n1` [Compound 64, 2-((2S,4R)-4-amino-1-(5-(trifluoromethyl)benzo[b]thiophene-2-carbonyl)pyrrolidin-2-yl)-N—((S)-6-guanidino-1-(methylamino)-1-oxohexan-2-yl)thiazole-4-carboxamide]: in assay [1] (setting [3]), the EC50 lay within 100 to 1000 nM.
Turning to `CNC(=O)[C@H](CCCCNC(=N)N)NC(=O)c1csc([C@@H]2C[C@@H](N)CN2C(=O)c2cc3ccc(C)cc3s2)n1` [Compound 65, 2-((2S,4R)-4-amino-1-(6-methylbenzo[b]thiophene-2-carbonyl)pyrrolidin-2-yl)-N—((S)-6-guanidino-1-(methylamino)-1-oxohexan-2-yl)thiazole-4-carboxamide], in assay [1] (setting [3]), the half-maximal effective concentration (EC50) lay within 100 to 1000 nM.
On the same count and under the same terms, in the case of `CNC(=O)[C@H](CCCCNC(=N)N)NC(=O)c1csc([C@@H]2C[C@@H](N)CN2C(=O)c2cnc3ccc(Cl)cc3c2)n1` [Compound 66, 2-((2S,4R)-4-amino-1-(6-chloroquinoline-3-carbonyl)pyrrolidin-2-yl)-N—((S)-6-guanidino-1-(methylamino)-1-oxohexan-2-yl)thiazole-4-carboxamide] it was 100 to 1000 nM; in that of `CNC(=O)[C@H](CCCCNC(=N)N)NC(=O)c1csc([C@@H]2C[C@@H](N)CN2C(=O)c2ccc3nc(Cl)ccc3c2)n1` [Compound 67, 2-((2S,4R)-4-amino-1-(2-chloroquinoline-6-carbonyl)pyrrolidin-2-yl)-N—((S)-6-guanidino-1-(methylamino)-1-oxohexan-2-yl)thiazole-4-carboxamide], 1000 to 5000 nM.
